Assay results: the NIST ThermoML archive (doi:10.1021/je300997v)

Assay: xn = mol fraction of the nth substance listed
Details: 101 kPa, Liquid; for viscosity: Capillary tube (Ostwald / Ubbelohde) method; for mass density: Pycnometric method; for electrical conductivity: conductivity meter

C[N+](C)(C)CCO.[Cl-] [choline chloride] + Oc1ccccc1
Details	electrical conductivity [S/m]	mass density [kg/m3]	viscosity [mPa·s]
293.2 K, x2 = 0.6667	0.14	1099.5	120.77
293.2 K, x2 = 0.75	0.238	1094.8	57.84
293.2 K, x2 = 0.8	0.275	1091.8	40.23
293.2 K, x2 = 0.8333	0.281	1089.8	31.96
293.2 K, x2 = 0.8571	0.273	1088.5	27.03
298.2 K, x2 = 0.6667	0.205	1096.7	90.33
298.2 K, x2 = 0.75	0.314	1092.1	44.64
298.2 K, x2 = 0.8	0.345	1089.3	31.55
298.2 K, x2 = 0.8333	0.347	1087	25.25
298.2 K, x2 = 0.8571	0.338	1085.2	21.43
303.2 K, x2 = 0.6667	0.265	1093	68.41
303.2 K, x2 = 0.75	0.388	1089	35.17
303.2 K, x2 = 0.8	0.421	1086	25.2
303.2 K, x2 = 0.8333	0.425	1083.8	19.75
303.2 K, x2 = 0.8571	0.409	1081.8	16.82
308.2 K, x2 = 0.6667	0.337	1090.1	53.43
308.2 K, x2 = 0.75	0.477	1085.8	28.22
308.2 K, x2 = 0.8	0.507	1081.9	20.25
308.2 K, x2 = 0.8333	0.508	1080.3	16.16
308.2 K, x2 = 0.8571	0.487	1078.2	13.76
313.2 K, x2 = 0.6667	0.416	1087.3	42.42
313.2 K, x2 = 0.75	0.576	1082.9	23.08
313.2 K, x2 = 0.8	0.602	1079.5	16.71
313.2 K, x2 = 0.8333	0.599	1076.1	13.44
313.2 K, x2 = 0.8571	0.574	1074.5	11.45
318.2 K, x2 = 0.6667	0.509	1084.3	34.34
318.2 K, x2 = 0.75	0.677	1079.5	19.14
318.2 K, x2 = 0.8	0.706	1076.3	14
318.2 K, x2 = 0.8333	0.696	1073.6	11.26
318.2 K, x2 = 0.8571	0.666	1071.7	9.46
